Measured values from a melting point compilation (Tetko et al.; mined from patent text by program, amines drawn as free bases though some values may be those of a salt).

melting point | Structure (SMILES)
287 to 289 °C | NC(=O)c1ccc([N+](=O)[O-])c(C(N)=O)c1
138 °C | COC(=O)Cc1sc(=S)[nH]c1COc1ccccc1
178 to 180 °C | COC(=O)c1c(C2=CC(=O)c3cccc(O)c3C2=O)c(C)n(C)c1C
193 to 194 °C | Cc1cc(-c2ccc(-c3ccco3)cc2)n(-c2ccc(S(C)(=O)=O)cc2)c1
138 to 142 °C | Cn1cc(SC(C)(C)C)c(=O)c(-c2ccc(Cl)c(C(F)(F)F)c2)c1
160 to 164 °C | COc1c(C2CCN(CCCCNC(=O)c3sc(-c4ccc(C#N)cc4)nc3C)CC2)ccc2c1CCCC2
135 to 137 °C | Cc1cccc(C)c1C(=O)N1C(=O)CN(c2ccccc2)C1=O
> 325 °C | O=c1c2cc(O)ccc2[nH]c2c([N+](=O)[O-])ccc(Cl)c12
112 °C | CCOC(=O)c1ccc(N(C)C)nn1
275 to 276 °C | O=C1C(=O)c2ccccc2C2=C1SCC1(CCN(S(=O)(=O)c3ccc(Cl)c(Cl)c3)CC1)O2
260 to 262 °C | CC(C)(C)c1ccc(O)c(CNS(=O)(=O)O)c1
193 °C | O=C(c1ccc(F)cc1)C1CCN(CCCn2c(=O)[nH]c(=O)c3ccccc32)CC1
158 to 161 °C | CC(C)(C#N)c1cc(Cn2cnnc2)cc(C(C)(C)C#N)c1
138 to 142 °C | O=C1c2cc3c(cc2CCC1(Br)Br)OCC3
152 to 153 °C | CS(=O)(=O)OCCOc1ccc(CN2C(=O)C(=O)c3cc(S(=O)(=O)N4CCCC4COc4ccccc4)ccc32)cc1 (stereo not given)
98 to 100 °C | O=C(CN1CCC(Cc2ccc(F)cc2)CC1)Nc1cccc(NCc2ccccc2)c1
147 to 149 °C | CC(=O)Nc1ccc(SCc2nc3ccccc3s2)cc1
107 °C | O=Cc1cccc2nc(-c3ccccc3)oc12
150 °C | N#Cc1cccc2nc(N[C@@H]3CCc4ccccc43)ccc12
171 to 173 °C | COc1ccc(CN2CC(COC(c3ccccc3)(c3ccccc3)c3ccccc3)CC2=O)cc1 (stereo not given)
104 to 106 °C | CC(C)(C)c1nc2c(Cl)ccc(-n3c(=O)cc(C(F)(F)F)n(N)c3=O)c2o1
125 to 130 °C | O=C(O)c1cccc(CC(Cn2ccnc2)c2ccc(F)cc2)c1 (stereo not given)
139 to 141 °C | CNC(=S)NCCCSc1ncc[nH]1
194 to 196 °C | CCCCOCCOc1ccc(-c2ccc3c(c2)C=C(C(=O)Nc2ccc(CN(C)C4CCOCC4)cc2)CCS3(=O)=O)cc1
135 to 136 °C | CCOC(=O)c1c(C(C)C)nc(-c2ccccc2)c(-c2ccccc2)c1-c1ccc(F)cc1
147 to 149 °C | O=C(O)CCCc1cc2nc(Cl)ccc2n1S(=O)(=O)c1cccc(-c2ccccc2)c1

melting point | Structure (SMILES)
225 to 226 °C | CC(C)n1nc(-c2sc(C(=O)NC3CCCCC3)nc2-c2ccccc2)ccc1=O
95 to 97 °C | CS(=O)(=O)c1ccc(-n2cc(-c3ccc(OC(F)(F)F)cc3)nc2-c2ccc(Cl)cc2)cc1
92 to 93.5 °C | CCCCN(CCCC)CCCOc1ccc(C(=O)c2c(-c3ccccc3)cc3ccccn23)cc1
60 to 65 °C | CCOC(=O)C(Cc1ccc2ccccc2c1Br)C(=O)OCC
226 to 227 °C | COc1cccc(Oc2nc(N)n3nc(-c4ccco4)nc3n2)c1
76 to 77 °C | CCSC(=O)Cc1csc(N)n1
103 °C | CC(=O)/C=C(\C)c1ccc(-c2ccccc2)c(F)c1
92 to 94 °C | COc1ccc(CCC(=O)NCc2ccccc2)cc1
87 to 88 °C | FC(F)(F)C(=C1SCCCS1)c1ccccc1
196 to 198 °C | O=C(Nc1cccc2cc(Br)cnc12)C1c2ccccc2-c2ccccc21
124 to 125 °C | Fc1cccc(Cn2cnnc2S)c1
122 to 125 °C | O=S(=O)(c1c(-c2ccc(Cl)cc2)[nH]c(SC(F)(F)F)c1Br)C(F)(F)F
186 to 188 °C | CCCc1nc2c(N)nc3ccccc3c2n1CC(C)(C)CC1(C)OCCO1
161 to 163 °C | CC(=O)Nc1nc(CCCl)cs1
157 to 159 °C | Cc1ccc(C2(c3ccc(C)cc3)NC(=O)N(CCCN3CCC(C#N)(c4ccccc4)CC3)C2=O)cc1
305 to 309 °C | CC(=O)c1ccc2nc3ccc(C(=O)O)cc3c(=O)n2c1
51 to 54 °C | COc1cc([N+](=O)[O-])c2nccc(C)c2c1OCCCCCc1cccs1
155 to 157 °C | O=C(O)CCC(=NO)c1ccc(-c2cccc(F)c2)cc1
168 °C | CC(C)OC(=O)c1nc(Cl)c(Cl)[nH]1
96 to 98 °C | CC(C)(C)OC(=O)N1CCN(CCC(N)=O)CC1
102 °C | CC(=O)CSc1nc2ccc(Cc3ccccc3)cc2[nH]1
150 to 151 °C | CCOC(=O)c1ccc(N(CCOc2ccc(C#N)c3ccccc23)C(=O)C(F)(F)F)cc1
160 °C | CCNC(=O)Cc1ccc2ccn(C3CCN(CCc4ccc(F)cc4)CC3)c2c1
183 to 185 °C | c1cncc(CC2CCN(CC34CC(c5ccccc53)c3ccccc34)CC2)c1
200 °C | O=c1[nH]c2ccc(Cl)cc2c(=O)o1
180 to 182 °C | CC1=C(C(=O)OCCC#N)C(c2ccccc2Cl)C(c2nnco2)=C(C)N1 (stereo not given)

melting point | Structure (SMILES)
98.7 to 99.7 °C | CC(=NOCCCOc1ccc(CC(=O)O)cc1)c1ccc(C(C)(C)C)cc1
75 to 79 °C | COc1cc(S(C)(=O)=O)c(C)cc1OCC(=O)NCC(O)COc1ccccc1C (stereo not given)
207 to 209 °C | CS(=O)(=O)c1cccc(C2=C(c3ccccc3)C(=O)N(c3ccc(F)cc3)C2)c1
> 300 °C | COc1ccc2c(O)c(-c3ccccc3OC)c(=O)[nH]c2c1
215 °C | Cc1cc(O)n2nc(CS)nc2n1
96 to 97 °C | COc1cc(CCC(=O)O)cc(I)c1O
88 to 90 °C | FC(F)(F)Oc1ccc2nc(Cc3ccc4c(c3)CCCC4)[nH]c2c1
202 to 204 °C | CC(CCCC(C)(C)O)C1CCC2C3CCC4(O)CC(O)CCC4(C)C3CCC12C (stereo not given)
101 to 105 °C | C=C(CC(C)C)C(=O)O
157 to 158 °C | CC(C)(C)OC(=O)N1CCC[C@@H]1Cc1cccc2ccc(N)cc12
190 to 191 °C | Cc1cc(C)cc(S(=O)c2cccc(N)c2C#N)c1 (stereo not given)
112 to 115 °C | CCCCc1c(C(=O)OCC)cc(O)c2ccc(OC)cc12
242 to 244 °C | Cc1cc(C(=O)O)cc(Cl)c1O
90 to 100 °C | Cc1cc(CNC(=O)c2cc(-c3ccc(-c4ccccc4C)cc3)nn2C)ccc1OC(C)(C)C(=O)O
120 to 121 °C | CC(C)CCCC(C)C1CCC2C3C=CC4=CC(O)CC(O)C4(C)C3CCC12C (stereo not given)
232 to 233 °C | Cc1cc(Cl)cc2c1OC(C(F)(F)F)C(C(=O)O)=C2 (stereo not given)
340 °C | COc1ccc(C2=c3c(c4c(c5ccccc35)=C(c3ccc(OC)cc3)CO4)NC2)cc1
288 °C | CNc1nc(Nc2ccc(S(C)=O)cc2)ncc1[N+](=O)[O-] (stereo not given)
100 to 102 °C | COC(=O)c1[nH]ccc1O
228 °C | N=c1c2sc(=S)n(-c3ccccc3)c2ncn1NC(=O)c1ccco1
156 to 159 °C | CCCCNC(=O)NS(=O)(=O)Cc1ccccc1-c1nnc(SC)o1
68 to 70 °C | CC1(C2N=NC(=O)O2)CC1 (stereo not given)
240 °C | Cc1ccc(N2C(=O)c3nccnc3C2=O)nc1
329 to 336 °C | Nc1cc2c3c(cc(N)cc3c1)C(=O)N(O)C2=O
99 to 101 °C | C#CC(C)(C)OC(C)Oc1ccc(NC(=O)N(C)C)cc1Cl (stereo not given)
172 to 174 °C | O=C(Nc1ccc(N2CC3CCC3C2)nc1)c1cc2cc(C(F)(F)F)cnc2n1Cc1cccc(F)c1 (stereo not given)

melting point | Structure (SMILES)
101 to 103 °C | Cc1ncn(CCCOc2c(C)cc(-c3nnn(C)n3)cc2C)n1
219 to 221 °C | CCc1[nH]c(=O)[nH]c1C(=O)c1cccnc1
77 to 80 °C | O=C(O)c1c(F)c(OC(F)F)c(F)c(F)c1[N+](=O)[O-]
98 to 102 °C | CCCCCCCCOc1cc2cc(CO)c(CO)c(-c3ccnc(Cl)c3)c2cc1OC
117 to 119 °C | O=[N+]([O-])c1cc(O)c(F)cc1F
64 to 66 °C | C=C(C)c1cccc(-n2c(C(F)(F)F)nn(C)c2=S)c1
227 to 230 °C | Cc1[nH]c2ccc(C(=O)c3ccccc3)cc2c1C=O
150 to 151 °C | COc1c(N2CC(OC)C(C)(N)C2)c(F)cc2c(=O)c(C(=O)O)cn([C@@H]3C[C@@H]3F)c12 (stereo not given in full)
> 170 °C | Nc1nc2c(sc(=O)n2C2CC(O)C(CO)O2)c(=O)[nH]1 (stereo not given)
95 °C | CCCCc1cc(C)cc(=O)[nH]1
156 to 165 °C | CCCCCCCC(=N)NC(=O)Nc1ccc(Cl)cc1
170 °C | CS(=O)(=O)c1ccc(C(=O)C2=C(O)C3CCC(C3)C2=O)c([N+](=O)[O-])c1 (stereo not given)
133 to 135 °C | O=C(Oc1ccccc1)c1ccc(N(Cc2ccccc2)Cc2ccccc2)cc1Cl
134 to 137 °C | CN1CCCC1=C1C(=O)N(c2ccccc2)c2cc(Cl)ccc21
200 °C | O=[N+]([O-])c1c(NCCO)cc(NCCO)cc1NCCO
121 to 122 °C | O=C1CCCc2scnc21
255 to 257 °C | Cc1ccc(S(=O)(=O)N2CCC(c3cccc4c3CCCC(C(=O)O)=C4)CC2)cc1
171 to 173 °C | CC(C)(O)c1cc2cc(O)c(Cl)c(Cl)c2s1
69 to 70 °C | CS(=O)(=O)N(Cc1cccnc1)c1ccc(OCC(F)(F)F)cc1
118 to 120 °C | CCC(CC)(CO)Nc1nc(-c2ccc(C#N)cc2)cs1
296 to 297 °C | COc1cc2c(c([N+](=O)[O-])c1O)C(=O)c1ccccc1C2=O
272 to 273 °C | C1CCc2c(c(N3CCCC3)nn3nnnc23)C1
141 to 142 °C | COc1cnc2c(-c3cccc(C(F)(F)F)c3)ccc(C)c2n1
97 to 99 °C | Cc1ccc(-c2nc(Cc3cccc(CO)c3)c(C)o2)cc1

Structure (SMILES) | melting point
COc1cccc2c1C13CCN(C)C(C2)C1(O)CCC(=O)C3 (stereo not given) | 191 to 193 °C
CN1Cc2c(-c3nc(CCl)co3)ncn2-c2ccccc2C1=O | 196 to 198 °C
Cc1cc2cc(N=[N+]=[N-])ccc2[nH]1 | 57 to 60 °C
